In patent US20250041278A1, “TLR8 AGONIST FOR MODULATING IMMUNE RESPONSE” (The Children's Medical Center Corporation, priority 2021, published 2025):

What was measured:
Type in all cases: cell-based
[1] = system: human adult PBMCs; assay: TNF ELISA in human adult PBMCs after TLR8 inhibitor CUCPT-9a; settings: CUCPT-9a pre-incubation
Experimental: FIG. 3E: As in FIG. 3D, PBMCs isolated from human adult donors were cultured with 10% autologous plasma and incubated with CUCPT-9a. After inhibition, cells were stimulated with DMSO, TL8-506 (TLR8 specific agonist), LPS (TLR4 agonist; negative control) and different concentrations of PVP-179. Supernatants were harvested after 20-24 hours and analyzed for production of TNF via ELISA. N=6 donors.
Next a TLR8-specific pharmacological inhibitor (CUCPT-9a), which stabilizes the TLR8 dimer in its resting state, was used to inhibit activity downstream of TLR8.

[2] = system: human adult and elderly PBMCs; assay: TNF ELISA in human adult or elderly PBMCs, 96-well format; settings: stimulated for 24 hours
Description: FIGS. 1A-1D. Discovery of PVP-179 in a human PBMC high-throughput screen. FIG. 1A: A graphical overview depicting screen approach. From a high-throughput screen previously conducted, 310 molecules were identified to be activators of either THP-1 cells (monocyte cell line) or primary human adult peripheral blood mononuclear cells (PBMCs). These 310 molecules were assembled into a stimulation plate and then applied to the PBMCs of 4 elderly donors (cultured with 10% autologous plasma). […] Z scores were averaged across all four elderly donors. The Z score and chemical structure for PVP-179 are indicated. FIG. 1C: Human adult or elderly PBMCs (cultured with 10% autologous plasma) were stimulated with PVP-179 in a two-point concentration titration manner. […] N=4 donors. FIG. 1D: As in FIG. 1C, the supernatants were collected, and 14 cytokines were measured by multiplex assay. […] N=4 donors each.
The activity of PVP-179 was confirmed in a 96-well format in both human adult and elderly PBMCs.

[3] = system: human monocytic THP-1 cell line; assay: High throughput screen in THP-1 cells (NF-kB/IRF-inducing and/or leukocyte adherence-inducing activity)
Description: FIGS. 1A-1D. Discovery of PVP-179 in a human PBMC high-throughput screen. FIG. 1A: A graphical overview depicting screen approach. From a high-throughput screen previously conducted, 310 molecules were identified to be activators of either THP-1 cells (monocyte cell line) or primary human adult peripheral blood mononuclear cells (PBMCs). These 310 molecules were assembled into a stimulation plate and then applied to the PBMCs of 4 elderly donors (cultured with 10% autologous plasma). […] Z scores were averaged across all four elderly donors. The Z score and chemical structure for PVP-179 are indicated. FIG. 1C: Human adult or elderly PBMCs (cultured with 10% autologous plasma) were stimulated with PVP-179 in a two-point concentration titration manner. After 18 hours of incubation, supernatant was processed for ELISA-based measurement of TNF production. N=4 donors. FIG. 1D: As in FIG. 1C, the supernatants were collected, and 14 cytokines were measured by multiplex assay. […] N=4 donors each.
In a previous high throughput screen (HTS), a number of hit molecules were identified as potentially activating human leukocytes. […] A separate pilot screen of 9,000 of the molecules for TNF-inducing activity in adult human peripheral blood mononuclear cells (PBMCs) subsequently identified 133 molecules. […]

[4] = system: human monocyte derived dendritic cells; assay: TNF ELISA in human monocyte derived dendritic cells (MoDCs); settings: 20-24 hours
Experimental: FIGS. 4A-4D. PVP-179 activates human macrophages and dendritic cells. FIGS. 4A-4B: Murine mononuclear cells were isolated from bone marrow and induced differentiation into dendritic cells (with GM-CSF and IL-4). After 5 days of culturing, these bone-marrow-derived dendritic cells (BMDCs) were stimulated with PVP-179 or MPLA for 18 hours at indicated concentrations. The supernatants were analyzed via ELISA where each dot in the graph represents the mean production of mTNF (FIG. 4A) and mIL-6 (FIG. 4B). N=6 for PVP-179, N=3 for MPLA. Two-way Anova was performed to determine statistical significance. The comparisons shown are compared to control group (0 M PVP-179). FIGS. 4C-4D: PBMCs were isolated from blood of adult human donors. CD14+ monocytes were specifically isolated from the PBMCs and were then cultured in 10% autologous plasma and induced to differentiate into macrophages with M-CSF (FIG. 4C), or dendritic cells with GM-CSF and IL-4 (FIG. 4D). After 5 days, cells were harvested from each differentiated cell type (macrophages: Mφ; dendritic cells: MoDCs) and a 96-well plate was setup with 100,000 cells/well. Cells were then stimulated with indicated concentrations of PVP-179 or R848 (33 μM) or LPS (100 ng/mL). After 20-24 hours of incubation, supernatants were harvested and applied to TNF ELISA. N=2 donors.

SMILES: CCCCn1c(/N=C/c2nc3ccccc3n2C)nc2ccccc21 [PVP-179]
- PVP-179 induced TNF production after CUCPT-9a [1]: completely blocked
- production of TNF ([2]; adult PBMCs): concentration-dependent production of TNF
- production of TNF ([2]; elderly PBMCs): concentration-dependent production of TNF
- hit call in original THP-1 screen [3]: positive hit
- TNF-inducing activity [4]: concentration-dependent activity
